Data on 10 molecules can be found in US20170088520A1, “DEUBIQUITINASE INHIBITORS” (PharmAkea, Inc., priority 2014, published 2017).

Common to all, as to format: cell-based
Test [1] deals with Mcl-1 expression in cells (NCI-H929, Z138, MM.1S, A-375). As to the kind of experiment: Analysis of Mcl-1 expression by Western blotting. The conditions noted are these: compound tested at 5 μM; Western blot. An outline of the steps: (§1)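 NCI-H929, Z138, MM.1S and A-375 cells were treated with compounds at 5 μM, and lysates were Western blotted with anti-Mcl-1 and anti-PARP antibodies, quantified by infrared fluorescence. Activity is a significant drop in Mcl-1 and the appearance of cleaved PARP, each relative to vehicle-treated cells.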
A general note: A western blot detects proteins with antibodies after separation by electrophoresis.

In test [2] the test system is PARP cleavage in cells (NCI-H929, Z138, MM.1S, A-375). Put plainly: Analysis of PARP cleavage by Western blotting. The conditions noted are these: compound tested at 5 μM; Western blot. The essentials:
as §1

The target of test [3] is T1, DUB activity in cells (NCI-H929, Z138, MM.1S, A375) (Homo sapiens, UniProt Q93008).
T1 construct: endogenous in cells; host or cells: NCI-H929, Z138, MM.1S, A375
T1 sequence (Q93008 whole entry): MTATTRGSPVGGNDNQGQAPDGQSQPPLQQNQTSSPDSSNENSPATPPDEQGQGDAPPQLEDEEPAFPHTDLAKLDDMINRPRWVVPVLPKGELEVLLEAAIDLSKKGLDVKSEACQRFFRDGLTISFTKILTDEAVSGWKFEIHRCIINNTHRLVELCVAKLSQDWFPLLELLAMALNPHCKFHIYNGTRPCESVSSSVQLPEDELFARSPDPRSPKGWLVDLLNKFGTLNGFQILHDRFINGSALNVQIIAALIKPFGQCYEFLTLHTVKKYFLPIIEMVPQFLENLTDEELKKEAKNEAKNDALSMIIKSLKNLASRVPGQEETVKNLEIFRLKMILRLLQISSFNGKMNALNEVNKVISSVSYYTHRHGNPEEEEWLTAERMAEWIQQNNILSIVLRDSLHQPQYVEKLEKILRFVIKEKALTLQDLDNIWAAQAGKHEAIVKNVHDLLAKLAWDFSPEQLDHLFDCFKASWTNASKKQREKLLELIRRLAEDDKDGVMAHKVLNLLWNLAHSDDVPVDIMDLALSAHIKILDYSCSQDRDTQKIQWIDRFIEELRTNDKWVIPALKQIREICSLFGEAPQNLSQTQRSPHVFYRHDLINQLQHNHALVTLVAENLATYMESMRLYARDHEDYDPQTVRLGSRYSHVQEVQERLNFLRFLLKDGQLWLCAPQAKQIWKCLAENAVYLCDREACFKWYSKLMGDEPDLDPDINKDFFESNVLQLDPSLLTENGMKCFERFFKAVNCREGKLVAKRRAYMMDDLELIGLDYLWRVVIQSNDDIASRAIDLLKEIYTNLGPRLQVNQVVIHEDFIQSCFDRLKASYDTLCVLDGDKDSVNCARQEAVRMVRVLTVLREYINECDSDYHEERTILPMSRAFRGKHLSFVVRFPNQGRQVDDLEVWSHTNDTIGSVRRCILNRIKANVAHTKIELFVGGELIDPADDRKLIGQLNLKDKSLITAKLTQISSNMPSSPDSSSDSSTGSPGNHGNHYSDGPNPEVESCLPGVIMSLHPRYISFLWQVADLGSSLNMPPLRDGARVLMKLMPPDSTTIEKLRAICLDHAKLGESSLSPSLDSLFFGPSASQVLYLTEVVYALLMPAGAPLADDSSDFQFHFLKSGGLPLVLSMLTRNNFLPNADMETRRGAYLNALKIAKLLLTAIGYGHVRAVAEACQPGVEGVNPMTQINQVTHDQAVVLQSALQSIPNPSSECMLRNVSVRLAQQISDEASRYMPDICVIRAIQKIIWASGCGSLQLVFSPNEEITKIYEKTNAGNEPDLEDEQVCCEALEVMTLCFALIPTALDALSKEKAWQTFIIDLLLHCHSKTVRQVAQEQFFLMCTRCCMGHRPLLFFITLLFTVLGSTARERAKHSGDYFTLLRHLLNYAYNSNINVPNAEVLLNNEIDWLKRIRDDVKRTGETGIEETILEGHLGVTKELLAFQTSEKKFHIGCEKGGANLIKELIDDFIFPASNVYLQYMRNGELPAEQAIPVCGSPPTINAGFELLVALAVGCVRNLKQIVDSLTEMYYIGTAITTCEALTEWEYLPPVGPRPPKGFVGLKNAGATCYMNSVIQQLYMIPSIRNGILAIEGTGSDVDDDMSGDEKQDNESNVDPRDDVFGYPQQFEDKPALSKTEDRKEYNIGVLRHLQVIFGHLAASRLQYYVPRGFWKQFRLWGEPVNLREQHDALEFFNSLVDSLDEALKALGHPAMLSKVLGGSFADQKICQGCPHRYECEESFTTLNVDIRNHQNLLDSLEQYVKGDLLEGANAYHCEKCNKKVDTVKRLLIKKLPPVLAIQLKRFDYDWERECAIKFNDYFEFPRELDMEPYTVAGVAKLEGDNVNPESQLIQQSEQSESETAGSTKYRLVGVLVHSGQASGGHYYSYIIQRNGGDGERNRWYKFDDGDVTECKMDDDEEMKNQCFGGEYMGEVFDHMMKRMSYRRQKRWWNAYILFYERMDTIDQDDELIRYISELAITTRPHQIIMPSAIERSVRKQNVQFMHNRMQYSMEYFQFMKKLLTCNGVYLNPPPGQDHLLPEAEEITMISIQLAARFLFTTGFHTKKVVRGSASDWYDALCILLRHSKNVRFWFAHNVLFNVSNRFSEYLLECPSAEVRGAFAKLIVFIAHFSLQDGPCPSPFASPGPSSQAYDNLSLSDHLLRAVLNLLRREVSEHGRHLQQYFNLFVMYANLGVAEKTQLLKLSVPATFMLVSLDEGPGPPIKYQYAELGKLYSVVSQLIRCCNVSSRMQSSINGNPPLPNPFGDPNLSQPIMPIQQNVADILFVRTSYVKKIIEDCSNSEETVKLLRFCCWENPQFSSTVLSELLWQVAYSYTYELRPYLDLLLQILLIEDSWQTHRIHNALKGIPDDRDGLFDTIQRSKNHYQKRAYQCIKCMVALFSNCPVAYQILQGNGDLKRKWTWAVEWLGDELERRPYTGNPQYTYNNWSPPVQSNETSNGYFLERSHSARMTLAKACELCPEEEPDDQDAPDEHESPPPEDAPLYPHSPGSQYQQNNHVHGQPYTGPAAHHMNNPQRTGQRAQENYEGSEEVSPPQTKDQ
As to the kind of experiment: HA-Ubiquitin-Vinylsulfone (HA-Ub-VS) cell labeling assay. The conditions noted are these: compound tested at 5 μM; HA-Ub-VS labeling of USP9x in cells. An outline of the steps:
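NCI-H929, Z138, MM.1S or A375 cells (1–2×10^6) treated 2–6 h at 37 °C with compound in 0.5% DMSO, here 5 μM. Lysates labeled with HA-Ub-VS for 15–60 min at 37 °C. Labeled DUBs resolved by SDS-PAGE and quantified by anti-HA and anti-β-actin immunoblot with infrared detection.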

With `CC(C)(C)OC(=O)COc1ccc(C2(NC(=O)/C(C#N)=C/c3cccc(Br)n3)CCCC2)cc1` [Compound 88, (E)-tert-butyl 2-(4-(1-(3-(6-bromopyridin-2-yl)-2-cyanoacrylamido)cyclopentyl)phenoxy)acetate], the inhibition at 5 µM in test [1] and in test [3] was ≥ 75% throughout. For the same molecule, the “PARP cleavage % Inhibition” value in test [2] was “A (A is ≧75% inhibition)”.
Turning to `N#C/C(=C\c1ncc(Br)cc1Br)C(=O)NC1(c2cccc(Cl)c2)CCCC1` [Compound 20, (E)-N-(1-(3-Chlorophenyl)cyclopentyl)-2-cyano-3-(3,5-dibromopyridin-2-yl)acrylamide], the inhibition at 5 µM in test [1] and in test [3] was ≥ 75% each time. Also, in test [2], the “PARP cleavage % Inhibition” value is “A (A is ≧75% inhibition)”.
For `COC(=O)c1cccc(C2(NC(=O)/C(C#N)=C/c3cccc(Br)n3)CCCC2)c1` [Compound 48, (E)-methyl 3-(1-(3-(6-bromopyridin-2-yl)-2-cyanoacrylamido)cyclopentyl)benzoate], the inhibition (commonly the percentage by which the read-out fell short of the control) at 5 µM in test [1] is < 25%; in test [3], 50 to 75%. Moreover, the “PARP cleavage % Inhibition” value in test [2] is listed as “A (A is ≧75% inhibition)”.
`N#C/C(=C\c1cccc(C2CC2)n1)C(=O)NC1(c2ccc(-c3cccc(C(=O)O)c3)cc2)CCCC1` [Compound 82, (E)-4′-(1-(2-cyano-3-(6-cyclopropylpyridin-2-yl)acrylamido)cyclopentyl)-[1,1′-biphenyl]-3-carboxylic acid]: the figures for the inhibition at 5 µM in test [1] and in test [3] were 50 to 75% and < 25%, respectively. In test [2], the “PARP cleavage % Inhibition” value is on record as “A (A is ≧75% inhibition)”.
As for `CCOc1ncc(C(F)(F)F)cc1-c1cccc(/C=C(\C#N)C(=O)NC2(c3ccccc3)CCCC2)n1` [Compound 47, (E)-2-cyano-3-(2′-ethoxy-5′-(trifluoromethyl)-[2,3′-bipyridin]-6-yl)-N-(1-phenylcyclopentyl)acrylamide], the figures for the inhibition at 5 µM in test [1] and in test [3] were 50 to 75% and 25 to 50%, respectively. In addition, the “PARP cleavage % Inhibition” value in test [2] is reported as “A (A is ≧75% inhibition)”.
For `COc1ncccc1-c1ccc(C2(NC(=O)/C(C#N)=C/c3ncc(Br)cc3Br)CCCC2)cc1` [Compound 53, (E)-2-cyano-3-(3,5-dibromopyridin-2-yl)-N-(1-(4-(2-methoxypyridin-3-yl)phenyl)cyclopentyl)acrylamide], the inhibition at 5 µM is 50 to 75% in test [1] and < 25% in test [3]. In addition, in test [2], the “PARP cleavage % Inhibition” value is reported as “A (A is ≧75% inhibition)”.
Consider `N#C/C(=C\c1cccc(-c2ccc(N3CCOCC3)nc2)n1)C(=O)NC1(c2ccccc2)CCCC1` [Compound 57, (E)-2-cyano-3-(6′-morpholino-[2,3′-bipyridin]-6-yl)-N-(1-phenylcyclopentyl)acrylamide], for which the inhibition at 5 µM in test [1] and in test [3] was ≥ 75% in each case. Further, the “PARP cleavage % Inhibition” value in test [2] is “A (A is ≧75% inhibition)”.
As to `N#C/C(=C\c1ncc(Br)cc1Br)C(=O)NC1(c2ccc(-c3ccc(N4CCCCC4)nc3)cc2)CCCC1` [Compound 69, (E)-2-cyano-3-(3,5-dibromopyridin-2-yl)-N-(1-(4-(6-(piperidin-1-yl)pyridin-3-yl)phenyl)cyclopentyl)acrylamide], the inhibition at 5 µM in test [1] and in test [3] was < 25% throughout. In addition, the “PARP cleavage % Inhibition” value in test [2] is on record as “D (D is <25% inhibition)”.
On to `N#C/C(=C\c1cccc(Br)n1)C(=O)NC1(c2ccc(CO)cc2)CCCC1` [Compound 86, (E)-3-(6-bromopyridin-2-yl)-2-cyano-N-(1-(4-(hydroxymethyl)phenyl)cyclopentyl)acrylamide], for which the inhibition at 5 µM in test [1] was < 25%; in test [3], 25 to 50%. Moreover, the “PARP cleavage % Inhibition” value in test [2] is “B (B is 50% to 75% inhibition)”.
The corresponding values for `N#C/C(=C\c1ncc(Br)cc1Br)C(=O)NC1(c2ccc(C(F)(F)F)cc2)CCCC1` [Compound 19, (E)-2-Cyano-3-(3,5-dibromopyridin-2-yl)-N-(1-(4-(trifluoromethyl)phenyl)cyclopentyl) acrylamide] are ≥ 75%, ≥ 75% and “A (A is ≧75% inhibition)”.
